Results on one molecule are retold here after paper PMC4657899, “Design, Synthesis and In Vitro Activity of Anticancer Styrylquinolines. The p53 Independent Mechanism of Action” (PLoS ONE, 2015).

One assay has as its system GM 07492. The assay can be described thus: MTS cytotoxicity assay, normal fibroblasts GM 07492. It is filed as cell-based. The following applies: Fibroblast, 72 h incubation, normal human fibroblasts, mean ± SD. Here is the method: (§1) The human colon adenocarcinoma cell line HCT116 along with wild type p53 (p53^+/+) were obtained from the ATCC. The normal human fibroblast cell line GM 07492 and HCT116 with a p53 deletion (p53^-/-) were kindly provided by prof. M. Rusin from Maria Sklodowska-Curie Memorial Cancer Center and Institute of Oncology in Gliwice, Poland. Cells were grown as monolayer cultures in 75 cm^2 flasks (Nunc) in Dulbecco’s modified Eagle’s medium with an antibiotic gentamicin (200 μL/100 mL medium). DMEM for HCT116 were supplemented with 12% heat-inactivated fetal bovine serum (Gibco) and for GM 07492 with 15% fetal bovine serum (Gibco). Cells were cultured under standard conditions at 37°C in a humidified atmosphere at 5% CO2.
(§2) The cells were seeded in 96-well plates 24 h before the addition of the compounds that were tested. The assay was performed following a 72 h incubation with varying concentrations of the agents that were tested. The results were calculated as IC50 values (using GraphPad Prism 5). Each individual compound was tested in triplicate in a single experiment with each experiment being repeated three times. After a 72 h incubation with the compounds that were tested, 20 μL of The CellTiter 96®AQueous One Solution—MTS (Promega) solution was added to each well (with 100 μL DMEM without phenol red) and incubated for 1 h at 37°C. The optical densities of the samples were analyzed at 490 nm. Results were expressed as a percentage of the control.
A general note: Formazan colour is commonly taken as a measure of viable cells.

The test system of a further assay is HCT116 (p53-/-). The assay is described as follows: MTS anti-proliferative assay, HCT116 (p53-/-). The following applies: Homo sapiens, HCT-116; MTS, 72 h incubation, mean ± SD. It is filed as cell-based, human. Here is the method: as §1, §2
Another assay relates to HCT116 (p53+/+). The assay can be described thus: MTS anti-proliferative assay, HCT116 (p53+/+). It counts as cell-based, human. The following applies: Homo sapiens, HCT-116, 72 h incubation, mean ± SD. Here is the method: as §1, §2
A further assay relates to Calf-thymus DNA (CT-DNA). The assay can be described thus: Spectrophotometric DNA binding (intercalation) study with CT-DNA. Here is the method:
For the DNA binding studies, Calf-thymus DNA (CT-DNA) was purchased from Sigma Aldrich. The lyophilized CT-DNA was dissolved in 10 mM Tris-HCl, pH 7.9, mixed gently and left overnight at 4°C. Then, the concentration of CT-DNA was determined from the absorbance at 260 nm using an extinction coefficient of 6600 M^-1cm^-1. […] Afterwards, 18 μM CT-DNA was added to the prepared solutions and were incubated for 1.5 h at 37°C with occasional vortexing. Absorption spectra were measured using a Hitachi U-2900 spectrophotometer in range of 200–600 nm. All absorption spectra were imported and compared in OriginPro 8.0.

The test system of another assay is HCT116 p53-/- cells. More on the design: method as in PMID 12027451. The following applies: cited from earlier work.
Assay [1] concerns caspase-3 and -7 in HCT116 (p53+/+) cells. The assay is described as follows: Caspase-Glo 3/7 assay, HCT116 (p53+/+). It counts as cell-based, human. The following applies: IC50 concentration, 48 h, relative to doxorubicin. Here is the method:
(§3) To measure caspase-3 and -7 activities, a luminescent Caspase-Glo 3/7 assay was performed. HCT116 (p53^+/+) and (p53^-/-) cells were seeded onto black 96-well plates at a density of 3,500 cells/well. […] After 48 h a Caspase-Glo 3/7 Assay (Promega) was performed according to the manufacturer’s instructions. After adding 100 μL of Caspase3/7 GloReagent, cells were incubated for 2.5 h at room temperature. The luminescence was measured using a multi-plate reader (Synergy 4, Bio Tek) with an integration time of 1 second per well. The experiments were performed in duplicate.

For assay [2], the system named is caspase-3 and -7 in HCT116 (p53-/-) cells. The assay is described as follows: Caspase-Glo 3/7 assay, HCT116 (p53-/-). The following applies: IC50 concentration, 48 h. It counts as cell-based, human. Here is the method:
as §3

[3] abbreviates: 18 μM CT-DNA, CP-31398 absorption band 350.

The structures appear in SMILES notation.

Regarding `COc1ccc(/C=C/c2nc(NCCCN(C)C)c3ccccc3n2)cc1` [CP-31398], the IC50 with GM 07492 was determined as 12.3 ± 0.54 µM; in the assay with HCT116 (p53-/-) it was 26.3 ± 1.41 µM; in the assay with HCT116 (p53+/+), 18.6 ± 0.92 µM. Besides, the “% hypochromism” value with Calf-thymus DNA (CT-DNA) (18 μM CT-DNA, 1.5 h 37°C, Tris-HCl pH 7.9, at the (first) absorption band (CP-31398: 312)) is listed as 41,4%. In the assay on Calf-thymus DNA (CT-DNA) (setting [3]), the “% hypochromism, second absorption band” value is recorded as 37,4%. In addition, the “Δε, second absorption band” value in the assay on Calf-thymus DNA (CT-DNA) (setting [3]) was 1693,3 M−1 cm−1. In the assay on Calf-thymus DNA (CT-DNA) (18 μM CT-DNA, at the (first) absorption band (CP-31398: 312)), the Δε was 1515,6 M−1 cm−1. Moreover, in the assay with Calf-thymus DNA (CT-DNA) (S3 Table, 18 μM CT-DNA), the “shift of the wavelength of maximum absorption, alone vs DNA-bound” value worked out at 0. Besides, in the assay on Calf-thymus DNA (CT-DNA) (S3 Table, with CT-DNA), the Changes in absorbance entry is recorded as “hypochromism”. Moreover, the “activity against HCT116 p53-/- cells versus wild-type (p53+/+)” value with HCT116 p53-/- cells is given as “several times less active”. In addition, the “Caspase-3/7 activity in wild type cells” value in assay [1] is given as “two times higher than doxorubicin”. The “Caspase-3/7 activity in p53-/- cells” value in assay [2] is on record as “did not increase the activity of caspases”.

Usually IC50 stands for the concentration at which inhibition is half-maximal. High values mean lower potency, low ones higher potency.
